This experiment concerns P388 leukemia ip, CD2F1 mice, survival T/C. In words: NCI In Vivo Anticancer Drug Screen. Data for tumor model P388 Leukemia (intraperitoneal) in CD2F1 (CDF1) mice. The note with it: endpoint: median survival time, higher = longer survival. The method in brief: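 Mice carrying the transplanted tumor received test compound or vehicle. Survival was recorded in each group, and the value is the treated-group measurement divided by that of the vehicle-treated control group.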

Setting [1] is: dose: 6.25 mg/kg/injection, schedule: Q01DX009 (ip), vehicle: saline.
[2] abbreviates: dose: 12.5 mg/kg/injection, schedule: Q01DX009 (ip), vehicle: saline.
[3] abbreviates: dose: 25.0 mg/kg/injection, schedule: Q01DX009 (ip), vehicle: saline.
Setting [4] is: dose: 100.0 mg/kg/injection, schedule: Q04DX003 (ip), vehicle: saline.
Where [5] appears, read: dose: 200.0 mg/kg/injection, schedule: Q04DX003 (ip), vehicle: saline.
Where [6] appears, read: dose: 60.0 mg/kg/injection, schedule: Q01DX005 (ip), vehicle: saline with Tween-80.
The mark [7] stands for this setting: dose: 120.0 mg/kg/injection, schedule: Q01DX005 (ip), vehicle: saline with Tween-80.
Setting [8] is: dose: 240.0 mg/kg/injection, schedule: Q01DX005 (ip), vehicle: saline with Tween-80.
Where [9] appears, read: dose: 50.0 mg/kg/injection, schedule: Q01DX005 (ip), vehicle: Klucel (hydroxypropylcellulose) (HPC).
The mark [10] stands for this setting: dose: 100.0 mg/kg/injection, schedule: Q01DX005 (ip), vehicle: Klucel (hydroxypropylcellulose) (HPC).
[11] abbreviates: dose: 200.0 mg/kg/injection, schedule: Q01DX005 (ip), vehicle: Klucel (hydroxypropylcellulose) (HPC).
Where [12] appears, read: dose: 50.0 mg/kg/injection, schedule: Q01DX005 (ip), vehicle: saline with Tween-80.
Setting [13] is: dose: 100.0 mg/kg/injection, schedule: Q01DX005 (ip), vehicle: saline with Tween-80.
Where [14] appears, read: dose: 200.0 mg/kg/injection, schedule: Q01DX005 (ip), vehicle: saline with Tween-80.

Where “and” joins values, the source holds several entries; their conditions need not be identical. Equal values may be shown once. Toxic doses and inconclusive results are not listed.

As for `O=C(O)c1cccc2c1SC(c1ccccc1)OC2=O` (stereo unspecified), the T/C is 103 % of control (dose: 50.0 mg/kg/injection, schedule: Q01DX005 (ip), vehicle: distilled water + alcohol); 99 % of control (dose: 100.0 mg/kg/injection, schedule: Q01DX005 (ip), vehicle: distilled water + alcohol); 109 % of control (dose: 200.0 mg/kg/injection, schedule: Q01DX005 (ip), vehicle: distilled water + alcohol).

Take `CC(C)NCC(O)COc1cccc2ccccc12` (stereo unspecified): the T/C reads like this: (dose: 4.0 mg/kg/injection, schedule: Q01DX009 (ip), vehicle: Klucel (hydroxypropylcellulose) (HPC)) 97 % of control; (dose: 8.0 mg/kg/injection, schedule: Q01DX009 (ip), vehicle: Klucel (hydroxypropylcellulose) (HPC)) 98 % of control; (dose: 16.0 mg/kg/injection, schedule: Q01DX009 (ip), vehicle: Klucel (hydroxypropylcellulose) (HPC)) 100 % of control; (dose: 32.0 mg/kg/injection, schedule: Q01DX009 (ip), vehicle: Klucel (hydroxypropylcellulose) (HPC)) 95 % of control; (dose: 64.0 mg/kg/injection, schedule: Q01DX009 (ip), vehicle: Klucel (hydroxypropylcellulose) (HPC)) 113 % of control.

Regarding `COc1cc(C(=O)O)c2c(c1C)OC(=O)c1c(C)cc(O)c(C=O)c1O2`, the T/C was 119 % of control under setting [1]; 119 % of control under setting [2]; 100 % of control under setting [3]; 116 % of control (dose: 26.0 mg/kg/injection, schedule: Q04DX003 (ip), vehicle: saline); 112 % of control (dose: 40.0 mg/kg/injection, schedule: Q04DX003 (ip), vehicle: saline); 119 % of control (dose: 60.0 mg/kg/injection, schedule: Q04DX003 (ip), vehicle: saline).

Take `CN1CCc2cc(O)c(O)cc2C1`: the T/C under setting [4] is 98 % of control and the T/C under setting [5] is 103 % of control.

As to `c1ccc(N=Nc2ccc3ns[s+]c3c2)cc1`, the T/C runs as follows: under setting [6], 92 % of control; under setting [7], 95 % of control; under setting [8], 103 % of control.

In the case of `CC1(C)OCC2OC=CC(=O)C2O1` (stereo unspecified), the T/C by setting is: (dose: 50.0 mg/kg/injection, schedule: Q04DX003 (ip), vehicle: saline with Tween-80) 108 % of control; (dose: 100.0 mg/kg/injection, schedule: Q04DX003 (ip), vehicle: saline with Tween-80) 101 % of control; under setting [4], 108 % of control; (dose: 200.0 mg/kg/injection, schedule: Q04DX003 (ip), vehicle: saline with Tween-80) 111 % of control; under setting [5], 104 % of control; (dose: 400.0 mg/kg/injection, schedule: Q04DX003 (ip), vehicle: saline with Tween-80) 120 % of control. Where the note is “dose: 400.0 mg/kg/injection, schedule: Q04DX003 (ip), vehicle: saline”, the T/C is 124 % of control.

In the case of `COc1cc2c(cc1OC)C(c1ccc([N+](=O)[O-])c(C)c1)=NCC2`, the T/C reads like this: under setting [9], 100 % of control; under setting [10], 100 % of control; under setting [11], 96 % of control.

With `CCC1(CC)NC(=O)[C@H](C)N1S(C)(=O)=O`, the T/C runs as follows: under setting [12], 100 % of control; under setting [13], 96 % of control; under setting [14], 89 % of control.

Turning to `COc1ccc2c(c1)C(=O)C[C@@H]1[C@](C)(C#N)CCC[C@]21C`, the T/C by setting is: under setting [6], 100 % of control; under setting [7], 94 % of control; under setting [8], 94 % of control.

On to `CC(=O)Oc1cc2c(cc1OC(C)=O)OCC(c1ccc(C)cc1)C2` (stereo unspecified), for which the T/C by setting is: under setting [6], 105 % of control; under setting [7], 108 % of control; under setting [8], 107 % of control.

Regarding `CCOC(=O)C1(C)CCCC1N` (stereo unspecified), the T/C by setting is: (dose: 60.0 mg/kg/injection, schedule: Q01DX005 (ip), vehicle: saline) 92 % of control; (dose: 120.0 mg/kg/injection, schedule: Q01DX005 (ip), vehicle: saline) 90 % of control.

With `S=C(/N=N/c1[nH]c2ccccc2c1NNC(=S)NC12CC3CC(CC(C3)C1)C2)NC12CC3CC(CC(C3)C1)C2`, the T/C is 96 % of control (dose: 30.0 mg/kg/injection, schedule: Q01DX005 (ip), vehicle: saline with Tween-80); 96 % of control under setting [6]; 87 % of control under setting [7]; 90 % of control under setting [8].

Turning to `COc1ccccc1-n1c(Cc2cccc3ccccc23)n[nH]c1=S`, the T/C is 99 % of control under setting [9], 100 % of control under setting [10] and 99 % of control under setting [11].

Turning to `Nc1nc(=S)c2ncn(C3OC(CO)C(O)C3O)c2[nH]1` (stereo unspecified), the T/C was 168 % of control (dose: 2.0 mg/kg/injection, schedule: Q01DX010 (ip), vehicle: saline); 118 % of control (dose: 8.0 mg/kg/injection, schedule: Q01DX010 (ip), vehicle: saline); 104 % of control (dose: 25.0 mg/kg/injection, schedule: Q01DX005 (ip), vehicle: saline with Tween-80); 120 % of control under setting [12]; 122 % of control (dose: 100.0 mg/kg/injection, schedule: Q04DX003 (ip), vehicle: saline sonified); 117 % of control (dose: 132.0 mg/kg/injection, schedule: Q04DX003 (ip), vehicle: saline with Tween-80). The T/C was 150 % of control and 158 % of control under setting [14]; 86 % of control (dose: 400.0 mg/kg/injection, schedule: Q04DX003 (ip), vehicle: saline sonified).

Turning to `NC(CCC(N)C(=O)O)C(=O)O` (stereo unspecified), the T/C was 97 % of control (dose: 25.0 mg/kg/injection, schedule: Q01DX009 (ip), vehicle: Klucel (hydroxypropylcellulose) (HPC)); 93 % of control (dose: 50.0 mg/kg/injection, schedule: Q01DX009 (ip), vehicle: Klucel (hydroxypropylcellulose) (HPC)); 87 % of control (dose: 100.0 mg/kg/injection, schedule: Q01DX009 (ip), vehicle: Klucel (hydroxypropylcellulose) (HPC)); 86 % of control (dose: 200.0 mg/kg/injection, schedule: Q01DX009 (ip), vehicle: Klucel (hydroxypropylcellulose) (HPC)).

On to `CCCC(=O)NC1CCc2cc(OC)c(OC)c(OC)c2-c2ccc(OC)c(=O)cc21` (stereo unspecified), for which the T/C runs as follows: (dose: 0.62 mg/kg/injection, schedule: Q01DX009 (ip), vehicle: Klucel (hydroxypropylcellulose) (HPC)) 152 % of control; (dose: 0.63 mg/kg/injection, schedule: Q01DX009 (ip), vehicle: Klucel (hydroxypropylcellulose) (HPC)) 178 % of control; (dose: 1.25 mg/kg/injection, schedule: Q01DX009 (ip), vehicle: Klucel (hydroxypropylcellulose) (HPC)) 152 % of control and 233 % of control; (dose: 2.5 mg/kg/injection, schedule: Q01DX009 (ip), vehicle: Klucel (hydroxypropylcellulose) (HPC)) 221 % of control.

Regarding `CC(=O)N([Si](C)(C)C)[Si](C)(C)C`, the T/C is 88 % of control and 96 % of control under setting [1]; 100 % of control and 109 % of control and 86 % of control under setting [2]; 101 % of control and 86 % of control and 93 % of control under setting [3]; 100 % of control (dose: 200.0 mg/kg/injection, schedule: Q01DX009 (ip), vehicle: saline).

For the compound `CCOc1ccc(N2CC(=O)N3CCCC(C)N3C(=O)C2)cc1` (stereo unspecified), the T/C runs as follows: under setting [12], 101 % of control; under setting [13], 101 % of control; under setting [14], 103 % of control.

As for `N#CCCN(CCC#N)Cc1c(O)ccc2ccccc12`, the T/C by setting is: under setting [12], 104 % of control; under setting [13], 114 % of control; under setting [14], 117 % of control.

Consider `O=[N+]([O-])c1ccc2c(N3CCC(CCCC4CCN(c5ncnc6cc([N+](=O)[O-])ccc56)CC4)CC3)ncnc2c1`, for which the T/C is 89 % of control under setting [12], 96 % of control under setting [13] and 100 % of control under setting [14].

For the origin of these results see PubChem BioAssay AID330 (DTP/NCI, 2004).
